For this data set, the system named is CCRIS mutagenicity, Ames/micronucleus/aberration tests. The experiment in a line: CCRIS mutagenicity studies. The note with it: Test System: AMES SALMONELLA TYPHIMURIUM
Setting [1] is: Strain/Indicator: TA98, Metabolic Activation: NONE, Method: PREINCUBATION
The mark [2] stands for this setting: Strain/Indicator: TA100, Metabolic Activation: NONE, Method: PREINCUBATION
Where [3] appears, read: Strain/Indicator: TA98, Metabolic Activation: NONE, Method: STANDARD PLATE.
Where [4] appears, read: Strain/Indicator: TA98, Metabolic Activation: RAT, LIVER, S-9, AROCLOR 1254, Method: STANDARD PLATE.
The mark [5] stands for this setting: Strain/Indicator: TA100, Metabolic Activation: NONE, Method: STANDARD PLATE.
The mark [6] stands for this setting: Strain/Indicator: TA100, Metabolic Activation: RAT, LIVER, S-9, AROCLOR 1254, Method: STANDARD PLATE.
Where [7] appears, read: Strain/Indicator: TA1535, Metabolic Activation: NONE, Method: STANDARD PLATE.
The mark [8] stands for this setting: Strain/Indicator: TA1535, Metabolic Activation: RAT, LIVER, S-9, AROCLOR 1254, Method: STANDARD PLATE.
Setting [9] is: Strain/Indicator: TA1537, Metabolic Activation: NONE, Method: STANDARD PLATE.
[10] abbreviates: Strain/Indicator: TA1537, Metabolic Activation: RAT, LIVER, S-9, AROCLOR 1254, Method: STANDARD PLATE.
Setting [11] is: Strain/Indicator: TA1538, Metabolic Activation: NONE, Method: STANDARD PLATE.
Where [12] appears, read: Strain/Indicator: TA1538, Metabolic Activation: RAT, LIVER, S-9, AROCLOR 1254, Method: STANDARD PLATE.

Active and inactive are the calls of the source. The rule behind the calls is not given here.

For the molecule `O=[N+]([O-])c1ccc(Nc2ncnc3c2ncn3-c2ccc([N+](=O)[O-])cc2)cc1`, the mutagenic call (Strain/Indicator: TA98(1,8-DNP), Metabolic Activation: NONE, Method: PREINCUBATION) was “inactive; negative”; the mutagenic call (Strain/Indicator: TA98(1,8-DNP), Metabolic Activation: RAT, LIVER, S-9, PCB, Method: PREINCUBATION) is “inactive; negative”; the mutagenic call (Strain/Indicator: TA98(NR), Metabolic Activation: NONE, Method: PREINCUBATION) is “inactive; negative”; the mutagenic call (Strain/Indicator: TA98(NR), Metabolic Activation: RAT, LIVER, S-9, PCB, Method: PREINCUBATION) was “inactive; negative”; the mutagenic call under setting [1] is “inactive; negative”; the mutagenic call (Strain/Indicator: TA98, Metabolic Activation: RAT, LIVER, S-9, PCB, Method: PREINCUBATION) is “inactive; negative”. Moreover, the mutagenic call by setting is: (Strain/Indicator: TA100(1,8-DNP), Metabolic Activation: NONE, Method: PREINCUBATION) “inactive; negative”; (Strain/Indicator: TA100(1,8-DNP), Metabolic Activation: RAT, LIVER, S-9, PCB, Method: PREINCUBATION) “inactive; negative”; (Strain/Indicator: TA100(NR), Metabolic Activation: NONE, Method: PREINCUBATION) “inactive; negative”; (Strain/Indicator: TA100(NR), Metabolic Activation: RAT, LIVER, S-9, PCB, Method: PREINCUBATION) “inactive; negative”; under setting [2], “inactive; negative”; (Strain/Indicator: TA100, Metabolic Activation: RAT, LIVER, S-9, PCB, Method: PREINCUBATION) “inactive; negative”. The mutagenic call (Strain/Indicator: YG1020, Metabolic Activation: NONE, Method: PREINCUBATION) is “inactive; negative”; the mutagenic call (Strain/Indicator: YG1020, Metabolic Activation: RAT, LIVER, S-9, PCB, Method: PREINCUBATION) is “inactive; negative”; the mutagenic call (Strain/Indicator: YG1021, Metabolic Activation: RAT, LIVER, S-9, PCB, Method: PREINCUBATION) was “active; positive”; the mutagenic call (Strain/Indicator: YG1024, Metabolic Activation: RAT, LIVER, S-9, PCB, Method: PREINCUBATION) was “inactive; negative”; the mutagenic call (Strain/Indicator: YG1025, Metabolic Activation: NONE, Method: PREINCUBATION) was “inactive; negative”; the mutagenic call (Strain/Indicator: YG1025, Metabolic Activation: RAT, LIVER, S-9, PCB, Method: PREINCUBATION) is “inactive; negative”. The mutagenic call (Strain/Indicator: YG1026, Metabolic Activation: NONE, Method: PREINCUBATION) is “inactive; negative”; the mutagenic call (Strain/Indicator: YG1026, Metabolic Activation: RAT, LIVER, S-9, PCB, Method: PREINCUBATION) is “inactive; negative”; the mutagenic call (Strain/Indicator: YG1029, Metabolic Activation: NONE, Method: PREINCUBATION) was “inactive; negative”; the mutagenic call (Strain/Indicator: YG1029, Metabolic Activation: RAT, LIVER, S-9, PCB, Method: PREINCUBATION) was “inactive; negative”.
On to `C=CC(=O)OC(C)(C)C`, for which the mutagenic call is “inactive; negative” under setting [3]; “inactive; negative” under setting [4]; “inactive; negative” (Strain/Indicator: TA98, Metabolic Activation: RAT, LIVER, S-9, SODIUM PHENOBARBITAL, Method: STANDARD PLATE); “inactive; negative” under setting [5]; “inactive; negative” under setting [6]; “inactive; negative” (Strain/Indicator: TA100, Metabolic Activation: RAT, LIVER, S-9, SODIUM PHENOBARBITAL, Method: STANDARD PLATE). Also, the mutagenic call reads like this: under setting [7], “inactive; negative”; under setting [8], “inactive; negative”; (Strain/Indicator: TA1535, Metabolic Activation: RAT, LIVER, S-9, SODIUM PHENOBARBITAL, Method: STANDARD PLATE) “inactive; negative”; under setting [9], “inactive; negative”; under setting [10], “inactive; negative”; (Strain/Indicator: TA1537, Metabolic Activation: RAT, LIVER, S-9, SODIUM PHENOBARBITAL, Method: STANDARD PLATE) “inactive; negative”. The mutagenic call under setting [11] was “inactive; negative”; the mutagenic call under setting [12] was “inactive; negative”; the mutagenic call (Strain/Indicator: TA1538, Metabolic Activation: RAT, LIVER, S-9, SODIUM PHENOBARBITAL, Method: STANDARD PLATE) is “inactive; negative”.
In the case of `Cc1cc(N(CCO)CCO)ccc1N=Nc1ccc(N)cc1`, the mutagenic call is “inactive; negative” (Strain/Indicator: TA98, Metabolic Activation: HAMSTER, LIVER, S-9, AROCLOR 1254, Method: STANDARD PLATE); “inactive; negative” under setting [3]; “inactive; negative” (Strain/Indicator: TA98, Metabolic Activation: RAT, LIVER, S-9, AROCLOR 1254, Method: PREINCUBATION); “inactive; negative” under setting [4]; “inactive; negative” under setting [5]; “inactive; negative” under setting [6]. In addition, the mutagenic call by setting is: under setting [7], “inactive; negative”; under setting [8], “inactive; negative”; under setting [9], “inactive; negative”; under setting [10], “inactive; negative”; under setting [11], “inactive; negative”; under setting [12], “inactive; negative”.
As to `C/C(C=O)=C(/Cl)C(=O)O`, the mutagenic call is, setting by setting: under setting [1], “active; positive”; under setting [2], “active; positive”; (Strain/Indicator: TA104, Metabolic Activation: NONE, Method: PREINCUBATION) “active; positive”.

The values above are taken from PubChem BioAssay AID1259407 (Chemical Carcinogenesis Research Information System (CCRIS), 2018).
